In PubChem BioAssay (NCI):
Several values for one entry are separate records, joined by “and”; a condition that tells them apart may be missing. Equal entries are not always repeated.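 Tested at 5 concentrations; 48 h exposure; 96-well plates; endpoints linearly interpolated, else capped at highest concentration. GI50: concentration for 50% inhibition of growth. TGI marks complete inhibition of growth.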

Legend:
Assay in all cases: growth of human tumour cells (NCI), 48 h
A549 NSCLC = tested on: A549 NSCLC
HCT-116 colon = tested on: HCT-116 colon
HOP-18 NSCLC = tested on: HOP-18 NSCLC
HOP-92 NSCLC = tested on: HOP-92 NSCLC
M19-MEL melanoma = tested on: M19-MEL melanoma
NCI-H460 lung = tested on: NCI-H460 lung
RPMI-8226 leukemia = tested on: RPMI-8226 leukemia
SNB-19 CNS = tested on: SNB-19 CNS
SNB-78 CNS = tested on: SNB-78 CNS
BT-549 breast = tested on: BT-549 breast
T-47D breast = tested on: T-47D breast

| Structure (SMILES) | TGI (A549 NSCLC) | TGI (HCT-116 colon) | TGI (HOP-18 NSCLC) [µM] | TGI (HOP-92 NSCLC) | TGI (M19-MEL melanoma) | TGI (NCI-H460 lung) | TGI (RPMI-8226 leukemia) | TGI (SNB-19 CNS) | TGI (SNB-78 CNS) [µM] | TGI (BT-549 breast) [µM] | TGI (T-47D breast) | GI50 (A549 NSCLC) | GI50 (HCT-116 colon) | GI50 (HOP-92 NSCLC) [µM] | GI50 (M19-MEL melanoma) [µM] | GI50 (NCI-H460 lung) | GI50 (RPMI-8226 leukemia) | GI50 (SNB-19 CNS) [µM] | GI50 (T-47D breast) [µM] |
| --- | --- | --- | --- | --- | --- | --- | --- | --- | --- | --- | --- | --- | --- | --- | --- | --- | --- | --- | --- |
| O=C1C=CC(=O)C2C1Cc1ccccc1C2c1ccccc1 (centres undefined) | > 100 µM | > 100 µM | > 100 | 85 µM | > 100 µM | 81.4 µM | 67.6 µM | > 100 µM |  |  |  |  |  |  |  |  |  |  |  |
| NCCOCn1cc(Cc2cccc(OCc3ccccc3)c2)c(=O)[nH]c1=O | > 100 µM | > 100 µM | > 100 | > 100 µM |  | > 100 µM | > 100 µM | > 100 µM | > 100 |  |  |  |  |  |  |  |  |  |  |
| COc1cc(O)c(C(=O)CC(C)=O)c(OC)c1 | > 100 µM | > 100 µM | > 100 |  |  | > 100 µM | > 100 µM | > 100 µM | > 100 |  |  |  |  |  |  |  |  |  |  |
| O=S(=O)(c1ccccc1)c1nccs1 | > 100 µM | > 100 µM | > 100 |  | > 100 µM | > 100 µM | > 100 µM | > 100 µM | > 100 |  |  |  |  |  |  |  |  |  |  |
| CCOP(=O)(OCC)/C(C#N)=C\c1ccsc1 | > 100 µM | > 100 µM | > 100 | > 100 µM | > 100 µM | > 100 µM | > 100 µM | > 100 µM | > 100 |  |  |  |  |  |  |  |  |  |  |
| Cc1ccc(NC(=O)C(=O)C(C(=O)c2ccc3ccccc3c2)C2OC(=O)c3ccccc32)c(C)c1 (centres undefined) | 62.8 µM | 20.1 µM | 29.5 | 27.8 µM | 22.6 µM | 25.5 µM | 40.4 µM |  | 72.6 |  |  |  |  |  |  |  |  |  |  |
| CC(CN1CC(=O)NC(=O)C1)N1CC(=O)NC(=O)C1 (centres undefined) | > 750 µM | > 750 µM | > 511 | 732 µM | 745 µM | > 622 µM | > 750 µM | > 750 µM | > 750 | > 750 | > 750 µM |  |  |  |  |  |  |  |  |
| CCCN(CCC)CCc1cc(C(C)=O)n(S(=O)(=O)c2ccc(C)cc2)c1 | > 100 µM | > 100 µM | > 100 | > 100 µM | > 100 µM | > 100 µM | > 100 µM | > 100 µM | > 100 |  |  |  |  |  |  |  |  |  |  |
| COC1CC(C)C(OC)c2cc(O)cc(c2O)NC(=O)/C(C)=C/C=C\C(C)C(OC(N)=O)/C(C)=C\C(C)C1OC (centres undefined) | 27.6 µM and 21.1 µM | 8.1 µM and 9.01 µM | 16.5 | 12.1 µM and 2.79 µM | 15.2 µM and 10.7 µM | 18.4 µM and 8.56 µM | 32.4 µM and 5.93 µM | 23.7 µM and 72.3 µM | 18.3 |  | 18.6 µM and 12.9 µM | 0.435 µM and 1.84 µM | 0.0642 µM and 0.571 µM | 0.234 | 0.498 | 0.348 µM and 0.42 µM | 0.174 µM and 0.383 µM | 0.649 | 0.446 |
| CN(C)CCNC(=O)c1cccc2nc3ccc4cccnc4c3nc12 | 9.65 µM | 2.43 µM | 6.66 | 1.99 µM | 1.62 µM | 1.01 µM |  | 6.75 µM | 11.3 |  |  |  |  |  |  |  |  |  |  |
| Cc1cc(Br)cc(C)c1NC(=O)C(=O)C(C(=O)c1ccncc1)C1OC(=O)c2ccccc21 (centres undefined) | > 100 µM | > 100 µM | > 100 | > 100 µM |  | > 100 µM | > 100 µM | > 100 µM | > 100 |  |  |  |  |  |  |  |  |  |  |
| C#CCN(N=O)C(=O)NCCCCC(NC(=O)OCc1ccccc1)C(=O)OCc1ccccc1 (centres undefined) |  | > 100 µM | > 100 | 42.1 µM | 63 µM | > 100 µM | > 100 µM | > 100 µM | > 100 |  |  |  |  |  |  |  |  |  |  |
| Cn1cnc([N+](=O)[O-])c1Sc1nnnn1C | > 100 µM | 28 µM | 21.5 | 25.2 µM | 29.9 µM | > 100 µM | > 100 µM | > 100 µM | 30.2 |  |  |  |  |  |  |  |  |  |  |
| O=C(N/C(=C\c1c(O)ccc2ccccc12)c1nc2ccccc2[nH]1)c1ccccc1 | > 100 µM | > 100 µM | > 100 | > 100 µM | > 100 µM | > 100 µM | > 100 µM | > 100 µM | > 100 |  |  |  |  |  |  |  |  |  |  |
| CC1(C)OC2CC3COC(=O)C3CC2O1 (centres undefined) | > 100 µM | > 100 µM | > 100 | > 100 µM | > 100 µM | > 100 µM | > 100 µM |  | > 100 |  |  |  |  |  |  |  |  |  |  |
| Nc1ncnc2c1sc(=S)n2-c1ccccc1 | > 100 µM | > 100 µM | > 100 | > 100 µM | > 100 µM | > 100 µM | > 100 µM | > 100 µM | > 100 |  |  |  |  |  |  |  |  |  |  |
| O=C1NC(=O)C(=Cc2c3ccccc3cc3ccccc23)C(=O)N1 | > 100 µM | > 100 µM | > 100 | > 100 µM | > 100 µM | > 100 µM | > 100 µM | > 100 µM |  |  |  |  |  |  |  |  |  |  |  |
| COc1cc2c(c(O)c1C)C(=O)CC(c1ccccc1)O2 (centres undefined) | > 100 µM | > 100 µM | > 100 | 40.8 µM | > 100 µM | > 10 µM |  |  | > 100 |  |  |  |  |  |  |  |  |  |  |
| COC1(OC)C2(Cl)C(Cl)=C(Cl)C1(Cl)C1c3ccc(C(C)=O)c4cccc(c34)C12 (centres undefined) | > 100 µM | > 100 µM | > 100 | 22.1 µM | > 100 µM | > 80.5 µM | > 100 µM | > 100 µM | > 100 | > 100 | 99.3 µM |  |  |  |  |  |  |  |  |
| CSC(=Nc1ccccc1Cl)NC(=O)c1ccc(Br)cc1 | > 100 µM | > 100 µM | 94.1 |  | > 100 µM | > 100 µM | > 100 µM | > 100 µM | 88.6 |  |  |  |  |  |  |  |  |  |  |
